Reference: ChEMBL document CHEMBL5303573, “Mapping human microbiome drug metabolism by gut bacteria and their genes” (Nature, 2019)

How the values were obtained:
[1] = bacteroides thetaiotaomicron, 12 h, 2 µM
Description: The drug is tested on Bacteroides thetaiotaomicron strain: 7330 for biotransformation. The drug concentrations were measured before and after a 12-h incubation by liquid-chromatography-coupled mass spectrometry (LC–MS)

[2] = The drug is tested on Ruminococcus torques strain: ATCC27756 for biotransformation. The drug concentrations were measured before and after a 12-h incubation by liquid-chromatography-coupled mass spectrometry (LC–MS); type: ADME; set-up: dose 2 uM, timepoint 0 vs 12 hours; settings: 2 µM
[3] = bacteroides thetaiotaomicron, 12 h, 2 µM; remark: listed apart in the source
Description: The drug is tested on Bacteroides thetaiotaomicron strain: VPI-5482 for biotransformation. The drug concentrations were measured before and after a 12-h incubation by liquid-chromatography-coupled mass spectrometry (LC–MS)

[4] = The drug is tested on Ruminococcus gnavus strain: ATCC29149 for biotransformation. The drug concentrations were measured before and after a 12-h incubation by liquid-chromatography-coupled mass spectrometry (LC–MS); settings: mediterraneibacter gnavus, 2 µM
[5] = The drug is tested on Bacteroides ovatus strain: ATCC8483 for biotransformation. The drug concentrations were measured before and after a 12-h incubation by liquid-chromatography-coupled mass spectrometry (LC–MS); settings: 2 µM
[6] = The drug is tested on Collinsella aerofaciens strain: ATCC25986 for biotransformation. The drug concentrations were measured before and after a 12-h incubation by liquid-chromatography-coupled mass spectrometry (LC–MS); settings: 2 µM
[7] = bacteroides fragilis, 12 h, 2 µM
Description: The drug is tested on Bacteroides fragilis strain: NCTC 9343 for biotransformation. The drug concentrations were measured before and after a 12-h incubation by liquid-chromatography-coupled mass spectrometry (LC–MS)

[8] = The drug is tested on Providencia rettgeri strain: DSM1131 for biotransformation. The drug concentrations were measured before and after a 12-h incubation by liquid-chromatography-coupled mass spectrometry (LC–MS); type: ADME; set-up: dose 2 uM, timepoint 0 vs 12 hours; settings: 2 µM
[9] = The drug is tested on Bifidobacterium longum subsp. Infantis strain: CCUG52486 for biotransformation. The drug concentrations were measured before and after a 12-h incubation by liquid-chromatography-coupled mass spectrometry (LC–MS); settings: 2 µM
[10] = The drug is tested on Blautia luti strain: DSM14534 for biotransformation. The drug concentrations were measured before and after a 12-h incubation by liquid-chromatography-coupled mass spectrometry (LC–MS); type: ADME; set-up: dose 2 uM, timepoint 0 vs 12 hours; settings: 2 µM
[11] = The drug is tested on Bacteroides cellulosilyticus strain: DSM14838 for biotransformation. The drug concentrations were measured before and after a 12-h incubation by liquid-chromatography-coupled mass spectrometry (LC–MS); settings: 2 µM
[12] = The drug is tested on Bacteroides pectinophilus strain: ATCC43243 for biotransformation. The drug concentrations were measured before and after a 12-h incubation by liquid-chromatography-coupled mass spectrometry (LC–MS); settings: 2 µM
[13] = The drug is tested on Providencia stuartii strain: ATCC25827 for biotransformation. The drug concentrations were measured before and after a 12-h incubation by liquid-chromatography-coupled mass spectrometry (LC–MS); settings: 2 µM
[14] = The drug is tested on Blautia hansenii strain: DSM20583 for biotransformation. The drug concentrations were measured before and after a 12-h incubation by liquid-chromatography-coupled mass spectrometry (LC–MS); settings: 2 µM
[15] = The drug is tested on Bacteroides caccae strain: ATCC43185 for biotransformation. The drug concentrations were measured before and after a 12-h incubation by liquid-chromatography-coupled mass spectrometry (LC–MS); settings: 2 µM
[16] = The drug is tested on Eubacterium rectale strain: ATCC33656 for biotransformation. The drug concentrations were measured before and after a 12-h incubation by liquid-chromatography-coupled mass spectrometry (LC–MS); settings: agathobacter rectalis, 2 µM
[17] = parabacteroides distasonis, 12 h, 2 µM
Description: The drug is tested on Parabacteroides distasonis strain: ATCC8503 for biotransformation. The drug concentrations were measured before and after a 12-h incubation by liquid-chromatography-coupled mass spectrometry (LC–MS)

[18] = The drug is tested on Bacteroides fragilis strain: HMW615 for biotransformation. The drug concentrations were measured before and after a 12-h incubation by liquid-chromatography-coupled mass spectrometry (LC–MS); settings: 2 µM
[19] = limosilactobacillus reuteri cf48-3a, 12 h, 2 µM
Description: The drug is tested on Lactobacillus reuteri CF48-3A strain: BEI HM-102 for biotransformation. The drug concentrations were measured before and after a 12-h incubation by liquid-chromatography-coupled mass spectrometry (LC–MS)

[20] = The drug is tested on Bacteroides vulgatus strain: ATCC8482 for biotransformation. The drug concentrations were measured before and after a 12-h incubation by liquid-chromatography-coupled mass spectrometry (LC–MS); settings: phocaeicola vulgatus, 2 µM

Structure (SMILES) | Bacterial Biotransformation [1] | Bacterial Biotransformation [2] | Bacterial Biotransformation [3] | Bacterial Biotransformation [4] | Bacterial Biotransformation [5] | Bacterial Biotransformation [6] | Bacterial Biotransformation [7] | Bacterial Biotransformation [8] | Bacterial Biotransformation [9] | Bacterial Biotransformation [10] | Bacterial Biotransformation [11] | Bacterial Biotransformation [12] | Bacterial Biotransformation [13] | Bacterial Biotransformation [14] | Bacterial Biotransformation [15] | Bacterial Biotransformation [16] | Bacterial Biotransformation [17] | Bacterial Biotransformation [18] | Bacterial Biotransformation [19] | Bacterial Biotransformation [20]
O=C(NC(Cc1cc(=O)[nH]c2ccccc12)C(=O)O)c1ccc(Cl)cc1 (stereo not given) [REBAMIPIDE] | Compound metabolized | Compound NOT metabolized | Compound NOT metabolized | Compound NOT metabolized | Compound NOT metabolized | Compound NOT metabolized | Compound NOT metabolized | Compound NOT metabolized | Compound NOT metabolized | Compound NOT metabolized | Compound NOT metabolized | Compound NOT metabolized | Compound NOT metabolized | Compound NOT metabolized | Compound NOT metabolized | Compound NOT metabolized | Compound NOT metabolized | Compound metabolized | – | –
CCCCC(=O)O[C@]1(C(=O)CO)[C@@H](C)C[C@H]2[C@@H]3CCC4=CC(=O)C=C[C@]4(C)[C@@]3(F)[C@@H](O)C[C@@]21C [BETAMETHASONE VALERATE] | Compound metabolized | – | Compound NOT metabolized | – | Compound NOT metabolized | Compound NOT metabolized | Compound metabolized | Compound NOT metabolized | – | – | Compound NOT metabolized | Compound NOT metabolized | Compound NOT metabolized | Compound metabolized | – | Compound NOT metabolized | Compound metabolized | Compound metabolized | Compound metabolized | Compound metabolized
CN(C)C(=O)C(CCN1CCC(O)(c2ccc(Cl)cc2)CC1)(c1ccccc1)c1ccccc1 [LOPERAMIDE] | – | Compound NOT metabolized | Compound NOT metabolized | Compound NOT metabolized | – | Compound NOT metabolized | Compound metabolized | Compound metabolized | – | Compound NOT metabolized | Compound NOT metabolized | Compound NOT metabolized | Compound NOT metabolized | Compound metabolized | Compound NOT metabolized | Compound NOT metabolized | Compound metabolized | Compound NOT metabolized | Compound NOT metabolized | Compound metabolized
COC(=O)[C@H]1[C@H]2C[C@@H]3c4[nH]c5cc(OC)ccc5c4CCN3C[C@H]2C[C@@H](OC(=O)c2cc(OC)c(OC)c(OC)c2)[C@@H]1OC [RESERPINE] | Compound NOT metabolized | Compound NOT metabolized | Compound NOT metabolized | Compound NOT metabolized | Compound NOT metabolized | Compound NOT metabolized | Compound NOT metabolized | Compound NOT metabolized | Compound NOT metabolized | Compound NOT metabolized | Compound NOT metabolized | – | Compound NOT metabolized | Compound NOT metabolized | Compound NOT metabolized | Compound NOT metabolized | Compound NOT metabolized | Compound NOT metabolized | Compound NOT metabolized | Compound NOT metabolized
COc1ccc(/C=C/C(=O)Nc2ccccc2C(=O)O)cc1OC | – | Compound NOT metabolized | Compound NOT metabolized | Compound NOT metabolized | Compound metabolized | Compound NOT metabolized | – | Compound NOT metabolized | Compound NOT metabolized | Compound NOT metabolized | Compound NOT metabolized | Compound NOT metabolized | Compound NOT metabolized | Compound NOT metabolized | – | Compound NOT metabolized | Compound NOT metabolized | Compound NOT metabolized | Compound NOT metabolized | –
